Experimental data: US20100168037A1 (priority 2002, published 2010)
Like-named read-outs stand apart in the source and are kept apart here. Where a SMILES comes first, the peptide text is derived from it. [ ]: non-standard residue; d: D form.

Key:
RCA60 = RCA60 (Ricinus communis, UniProt P02879); type: binding
BoNT/B neurotoxin = BoNT/B neurotoxin (Clostridium botulinum, UniProt P10844); type: binding
BoNT/A = BoNT/A (Clostridium botulinum, UniProt P0DPI0); type: binding
BoNT/B = BoNT/B (Clostridium botulinum, UniProt P10844); type: binding
BotB complex = BotB complex (Clostridium botulinum, UniProt P10844); type: binding
Chain of BotB complex (P10844 2-1291 limits assumed, one chain of several): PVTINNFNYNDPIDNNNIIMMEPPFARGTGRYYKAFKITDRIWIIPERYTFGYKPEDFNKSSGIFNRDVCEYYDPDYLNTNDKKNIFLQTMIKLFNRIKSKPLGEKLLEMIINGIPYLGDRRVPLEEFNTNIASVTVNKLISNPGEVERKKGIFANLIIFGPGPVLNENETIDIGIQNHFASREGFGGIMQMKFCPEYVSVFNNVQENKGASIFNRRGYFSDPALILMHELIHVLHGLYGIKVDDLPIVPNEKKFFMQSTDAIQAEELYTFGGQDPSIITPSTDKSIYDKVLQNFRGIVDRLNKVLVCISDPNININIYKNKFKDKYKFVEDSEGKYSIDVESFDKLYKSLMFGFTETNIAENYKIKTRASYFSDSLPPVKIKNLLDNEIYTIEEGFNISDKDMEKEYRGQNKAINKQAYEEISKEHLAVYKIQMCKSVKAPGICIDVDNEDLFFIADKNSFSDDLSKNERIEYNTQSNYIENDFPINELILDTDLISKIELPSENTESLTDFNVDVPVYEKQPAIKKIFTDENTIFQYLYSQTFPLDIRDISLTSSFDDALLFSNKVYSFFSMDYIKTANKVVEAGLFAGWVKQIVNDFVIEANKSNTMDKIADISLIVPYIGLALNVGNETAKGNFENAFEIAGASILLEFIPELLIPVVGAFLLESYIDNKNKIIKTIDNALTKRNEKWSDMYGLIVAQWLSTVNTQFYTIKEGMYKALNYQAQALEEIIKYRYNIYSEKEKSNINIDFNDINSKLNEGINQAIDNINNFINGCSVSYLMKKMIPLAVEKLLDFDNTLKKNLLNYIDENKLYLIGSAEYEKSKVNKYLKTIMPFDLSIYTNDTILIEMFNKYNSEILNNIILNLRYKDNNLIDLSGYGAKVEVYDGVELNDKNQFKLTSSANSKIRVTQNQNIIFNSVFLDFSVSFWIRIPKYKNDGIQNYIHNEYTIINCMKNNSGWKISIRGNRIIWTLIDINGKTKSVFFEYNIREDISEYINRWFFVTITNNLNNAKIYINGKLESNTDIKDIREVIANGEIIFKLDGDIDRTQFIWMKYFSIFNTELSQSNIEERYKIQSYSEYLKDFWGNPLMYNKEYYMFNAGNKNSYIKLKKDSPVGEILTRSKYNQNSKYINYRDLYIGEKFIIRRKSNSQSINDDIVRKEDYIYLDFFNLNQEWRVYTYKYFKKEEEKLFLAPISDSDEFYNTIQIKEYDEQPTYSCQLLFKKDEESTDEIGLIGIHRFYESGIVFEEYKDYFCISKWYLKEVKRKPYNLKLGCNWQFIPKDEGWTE

[1] = mouse, in vivo
[2] = target: T1, ConA (Canavalia ensiformis, Jack Bean Lectin) (Canavalia ensiformis, UniProt P02866); assay: Bead library screen, binding of AP-ConA; details: peptide on TentaGel bead; AP / NBT-BCIP detection
T1 construct: purchased EY Laboratories (San Mateo, Calif.)

Chain of BoNT/A (P0DPI0 whole entry, looked up): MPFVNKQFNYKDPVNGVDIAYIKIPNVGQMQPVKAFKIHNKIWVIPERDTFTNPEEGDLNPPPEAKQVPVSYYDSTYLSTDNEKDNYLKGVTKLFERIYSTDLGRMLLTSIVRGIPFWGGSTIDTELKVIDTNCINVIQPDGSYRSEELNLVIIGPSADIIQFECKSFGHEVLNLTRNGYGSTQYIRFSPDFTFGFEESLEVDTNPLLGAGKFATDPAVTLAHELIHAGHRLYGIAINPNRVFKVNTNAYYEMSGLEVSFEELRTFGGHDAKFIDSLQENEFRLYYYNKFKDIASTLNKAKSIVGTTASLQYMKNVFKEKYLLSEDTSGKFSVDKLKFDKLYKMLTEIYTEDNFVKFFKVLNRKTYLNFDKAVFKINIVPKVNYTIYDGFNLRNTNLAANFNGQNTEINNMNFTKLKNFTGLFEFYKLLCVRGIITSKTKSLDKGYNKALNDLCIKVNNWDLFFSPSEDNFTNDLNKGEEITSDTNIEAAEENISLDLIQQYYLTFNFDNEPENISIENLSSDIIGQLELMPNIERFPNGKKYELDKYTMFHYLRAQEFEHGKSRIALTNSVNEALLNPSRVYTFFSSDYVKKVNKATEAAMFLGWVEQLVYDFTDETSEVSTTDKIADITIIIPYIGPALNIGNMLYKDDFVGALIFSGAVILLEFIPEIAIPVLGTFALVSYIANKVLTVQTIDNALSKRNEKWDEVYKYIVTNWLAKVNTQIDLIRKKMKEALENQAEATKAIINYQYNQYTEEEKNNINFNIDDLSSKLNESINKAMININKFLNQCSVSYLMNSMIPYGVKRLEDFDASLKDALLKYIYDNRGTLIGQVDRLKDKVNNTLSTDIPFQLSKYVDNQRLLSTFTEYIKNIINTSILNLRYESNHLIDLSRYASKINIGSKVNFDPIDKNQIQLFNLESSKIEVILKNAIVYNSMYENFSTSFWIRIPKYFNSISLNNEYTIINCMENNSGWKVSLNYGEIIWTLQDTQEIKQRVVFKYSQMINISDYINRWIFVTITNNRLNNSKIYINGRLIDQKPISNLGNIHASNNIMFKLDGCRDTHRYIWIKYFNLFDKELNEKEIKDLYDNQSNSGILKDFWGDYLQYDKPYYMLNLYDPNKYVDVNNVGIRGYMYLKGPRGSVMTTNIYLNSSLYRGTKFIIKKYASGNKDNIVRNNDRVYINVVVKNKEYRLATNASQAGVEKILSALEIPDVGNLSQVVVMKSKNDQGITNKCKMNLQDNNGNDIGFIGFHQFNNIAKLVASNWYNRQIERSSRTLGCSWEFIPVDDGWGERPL
Chain of BoNT/B neurotoxin (P10844 whole entry, looked up): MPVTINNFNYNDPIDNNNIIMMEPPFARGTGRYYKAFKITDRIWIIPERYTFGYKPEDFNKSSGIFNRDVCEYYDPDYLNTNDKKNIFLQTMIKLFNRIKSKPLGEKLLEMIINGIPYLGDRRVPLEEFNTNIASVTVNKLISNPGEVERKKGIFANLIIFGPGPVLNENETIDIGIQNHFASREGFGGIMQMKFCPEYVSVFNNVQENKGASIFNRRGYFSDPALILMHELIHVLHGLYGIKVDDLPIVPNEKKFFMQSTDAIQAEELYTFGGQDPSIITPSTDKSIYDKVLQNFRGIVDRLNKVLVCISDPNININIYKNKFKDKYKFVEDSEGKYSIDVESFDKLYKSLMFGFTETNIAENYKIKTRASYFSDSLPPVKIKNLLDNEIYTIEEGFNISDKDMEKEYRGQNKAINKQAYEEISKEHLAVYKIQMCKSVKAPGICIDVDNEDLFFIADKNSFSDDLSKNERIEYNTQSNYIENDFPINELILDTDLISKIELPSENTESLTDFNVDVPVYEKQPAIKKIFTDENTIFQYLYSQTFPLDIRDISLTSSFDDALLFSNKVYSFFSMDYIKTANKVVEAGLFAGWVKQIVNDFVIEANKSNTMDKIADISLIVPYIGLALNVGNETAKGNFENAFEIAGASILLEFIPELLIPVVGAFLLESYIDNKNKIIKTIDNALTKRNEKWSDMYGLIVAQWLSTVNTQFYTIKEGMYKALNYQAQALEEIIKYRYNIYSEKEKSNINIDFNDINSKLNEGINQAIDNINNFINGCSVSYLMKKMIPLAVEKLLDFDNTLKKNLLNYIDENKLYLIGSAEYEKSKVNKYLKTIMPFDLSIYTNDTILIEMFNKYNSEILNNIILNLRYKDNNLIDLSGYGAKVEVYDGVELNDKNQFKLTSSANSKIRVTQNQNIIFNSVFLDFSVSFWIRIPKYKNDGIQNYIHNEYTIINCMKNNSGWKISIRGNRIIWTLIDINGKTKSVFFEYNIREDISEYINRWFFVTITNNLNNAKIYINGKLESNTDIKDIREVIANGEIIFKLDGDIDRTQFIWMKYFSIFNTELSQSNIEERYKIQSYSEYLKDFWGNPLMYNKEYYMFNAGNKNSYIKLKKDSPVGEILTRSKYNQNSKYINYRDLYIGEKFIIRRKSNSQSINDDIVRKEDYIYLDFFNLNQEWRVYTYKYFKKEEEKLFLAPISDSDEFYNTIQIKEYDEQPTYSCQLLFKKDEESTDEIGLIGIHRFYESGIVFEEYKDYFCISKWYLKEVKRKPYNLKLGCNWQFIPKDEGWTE

SMILES	Saturation Concentration (RCA60) [nM]	binding of BoNT/B to D-peptide bead (positive bead sequenced) (BoNT/B neurotoxin)	binding of BoNT/A in the microplate binding assay (BoNT/A)	binding of BoNT/B in the microplate binding assay (BoNT/B)	other results
C[C@@H](N)C(=O)N[C@H](Cc1ccccc1)C(=O)N[C@H](Cc1ccc(O)cc1)C(=O)N[C@H](C)C(=O)N[C@H](Cc1ccc(O)cc1)C(=O)N[C@H](CCCCN)C(=O)N[C@H](CCCCN)C(=O)N[C@H](CCCCN)C(=O)O [AFYAY] (H-[dA][dF][dY][dA][dY][dK][dK][dK]-OH; C-terminus assumed)	100	–	–	–	–
C[C@@H](NC(=O)CN)C(=O)N[C@H](Cc1ccccc1)C(=O)N[C@H](Cc1ccccc1)C(=O)N[C@H](Cc1c[nH]c2ccccc12)C(=O)N[C@H](CCCCN)C(=O)N[C@H](CCCCN)C(=O)N[C@H](CCCCN)C(=O)O [GAFFW] (H-G[dA][dF][dF][dW][dK][dK][dK]-OH; C-terminus assumed)	–	identified	bound	bound	–
NCCCC[C@@H](NC(=O)[C@@H](CCCCN)NC(=O)[C@@H](CCCCN)NC(=O)[C@@H](Cc1ccc(O)cc1)NC(=O)[C@@H](Cc1ccccc1)NC(=O)[C@@H](Cc1ccccc1)NC(=O)[C@@H](Cc1ccccc1)NC(=O)CN)C(=O)O [GFFFY] (H-G[dF][dF][dF][dY][dK][dK][dK]-OH; C-terminus assumed)	–	binding	bound	bound	Saturation Concentration (BoNT/A): 3 to 4 nM; Kd (BoNT/A; read-out: Estimated Kd): 1 to 2 nM; Saturation Concentration (BoNT/B): 3 to 4 nM; Kd (BoNT/B; read-out: Estimated Kd): 1 to 2 nM; Saturation Concentration (BotB complex): 2.3 nM; binding of BotB complex in the microplate binding assay (BotB complex): bound; Kd (BotB complex; read-out: Estimated Kd): 0.022 nM
NCCCC[C@@H](NC(=O)[C@@H](CCCCN)NC(=O)[C@@H](CCCCN)NC(=O)[C@@H](Cc1ccc(O)cc1)NC(=O)[C@@H](Cc1c[nH]c2ccccc12)NC(=O)CNC(=O)[C@@H](Cc1ccccc1)NC(=O)CN)C(=O)O [GFGWY] (H-G[dF]G[dW][dY][dK][dK][dK]-OH; C-terminus assumed)	–	identified	bound	bound	–
NCCCC[C@@H](NC(=O)[C@@H](CCCCN)NC(=O)[C@@H](CCCCN)NC(=O)[C@@H](Cc1ccc(O)cc1)NC(=O)CNC(=O)[C@@H](Cc1c[nH]c2ccccc12)NC(=O)[C@@H](Cc1ccccc1)NC(=O)CN)C(=O)O [GFWGY] (H-G[dF][dW]G[dY][dK][dK][dK]-OH)	–	–	–	–	signs of toxicity ([1]; ip): no apparent toxicity; signs of toxicity ([1]; iv): no apparent toxicity
NCCCC[C@@H](NC(=O)[C@@H](CCCCN)NC(=O)[C@@H](CCCCN)NC(=O)[C@@H](Cc1ccccc1)NC(=O)[C@@H](Cc1ccccc1)NC(=O)[C@@H](Cc1ccc(O)cc1)NC(=O)[C@@H](Cc1ccccc1)NC(=O)CN)C(=O)O [GFYFF] (H-G[dF][dY][dF][dF][dK][dK][dK]-OH; C-terminus assumed)	100	binding	–	–	binding of ConA to D-peptide bead (positive bead sequenced) [2]: binding
